Measured values taken from patent US20100144733A1, “Compounds, compositions and methods comprising heteroaromatic derivatives” (Institute for OneWorld Health, priority 2008, published 2010).

Molecular target: T1, CFTR (Homo sapiens, UniProt P13569)
T1 construct: endogenous in cells; host or cells: T84 human colonic cells (ECACC)
Assay: T84 assay (FLIPR membrane potential dye, forskolin/IBMX-stimulated CFTR channel activity)
Format: cell-based
Settings: oxadiazole-containing compounds (a series), average of at least 2 runs unless annotated n = 1, read-out: IC50
Method in brief: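 Fluorescence from a membrane potential dye in T84 monolayers (HBSS with 10 mM Hepes) is followed each second for 150 s. Cells are exposed to test compound during the 45 min dye loading, then challenged with forskolin (10 μM) and IBMX (100 μM) to open CFTR. Inhibitors suppress the depolarization-driven fluorescence increase.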

T1 sequence (P13569 whole entry): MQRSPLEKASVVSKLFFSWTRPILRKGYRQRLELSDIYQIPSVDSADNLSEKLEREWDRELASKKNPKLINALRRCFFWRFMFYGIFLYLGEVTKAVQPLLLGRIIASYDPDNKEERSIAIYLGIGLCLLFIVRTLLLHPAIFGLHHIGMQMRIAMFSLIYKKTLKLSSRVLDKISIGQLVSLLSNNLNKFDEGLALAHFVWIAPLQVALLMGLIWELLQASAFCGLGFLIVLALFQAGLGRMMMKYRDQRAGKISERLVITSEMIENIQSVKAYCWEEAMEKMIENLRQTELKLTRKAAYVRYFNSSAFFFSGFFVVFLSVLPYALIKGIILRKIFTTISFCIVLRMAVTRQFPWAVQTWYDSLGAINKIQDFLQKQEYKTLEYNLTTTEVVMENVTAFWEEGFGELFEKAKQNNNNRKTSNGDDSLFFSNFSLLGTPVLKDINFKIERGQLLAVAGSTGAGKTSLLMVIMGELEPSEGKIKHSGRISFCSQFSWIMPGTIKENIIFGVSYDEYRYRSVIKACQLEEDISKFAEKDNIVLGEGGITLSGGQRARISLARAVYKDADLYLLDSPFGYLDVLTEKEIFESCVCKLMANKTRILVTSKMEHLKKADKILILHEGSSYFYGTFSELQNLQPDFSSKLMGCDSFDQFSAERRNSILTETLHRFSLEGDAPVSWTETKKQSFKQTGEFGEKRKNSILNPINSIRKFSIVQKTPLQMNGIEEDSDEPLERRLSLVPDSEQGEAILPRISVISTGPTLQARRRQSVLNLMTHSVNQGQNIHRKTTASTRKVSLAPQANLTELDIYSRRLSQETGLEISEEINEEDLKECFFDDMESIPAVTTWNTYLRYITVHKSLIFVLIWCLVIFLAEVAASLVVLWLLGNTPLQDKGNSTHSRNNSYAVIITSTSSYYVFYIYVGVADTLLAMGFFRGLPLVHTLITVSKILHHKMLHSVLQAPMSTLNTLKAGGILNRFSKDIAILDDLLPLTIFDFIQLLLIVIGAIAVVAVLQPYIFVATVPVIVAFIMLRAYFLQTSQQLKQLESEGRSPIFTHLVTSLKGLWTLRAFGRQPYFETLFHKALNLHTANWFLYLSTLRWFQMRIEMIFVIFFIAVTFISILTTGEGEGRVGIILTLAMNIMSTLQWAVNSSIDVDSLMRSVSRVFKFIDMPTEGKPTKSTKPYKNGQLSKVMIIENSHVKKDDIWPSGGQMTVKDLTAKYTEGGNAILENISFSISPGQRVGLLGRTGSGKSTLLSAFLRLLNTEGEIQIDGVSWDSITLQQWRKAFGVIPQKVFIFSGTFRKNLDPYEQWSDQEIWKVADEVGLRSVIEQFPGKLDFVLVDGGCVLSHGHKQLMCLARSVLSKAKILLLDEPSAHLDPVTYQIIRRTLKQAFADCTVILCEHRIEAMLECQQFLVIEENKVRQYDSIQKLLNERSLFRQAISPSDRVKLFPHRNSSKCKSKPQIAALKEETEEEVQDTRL

| SMILES | IC50 |
| --- | --- |
| CC(C)(C)C(=O)CN(Cc1ccc(Oc2ccccc2)cc1)C(=O)c1nc(-c2cc(Cl)c(O)c(Cl)c2)no1 [165a, 3-(3,5-dichloro-4-hydroxyphenyl)-N-(3,3-dimethyl-2-oxobutyl)-N-(4-phenoxybenzyl)-1,2,4-oxadiazole-5-carboxamide] | 11.5 µM |
| C=CCN(Cc1cccc(OC(F)(F)F)c1)C(=O)c1nc(-c2cc(Cl)c(O)c(Cl)c2)no1 [169a, N-allyl-3-(3,5-dichloro-4-hydroxyphenyl)-N-(3-(trifluoromethoxy)benzyl)-1,2,4-oxadiazole-5-carboxamide] | 2.95 µM |
| O=C(NCc1ccc(Oc2ccc(F)cc2)cc1)c1nc(-c2cc(Cl)c(O)c(Cl)c2)no1 [171a, 3-(3,5-dichloro-4-hydroxyphenyl)-N-(4-(4-fluorophenoxy)benzyl)-1,2,4-oxadiazole-5-carboxamide] | 7.44 µM |
| CN(Cc1ccc(-c2ccc(C(F)(F)F)cn2)cc1)C(=O)c1nc(-c2cc(Cl)c(O)c(Cl)c2)no1 [174a, 3-(3,5-dichloro-4-hydroxyphenyl)-N-methyl-N-(4-(5-(trifluoromethyl)pyridin-2-yl)benzyl)-1,2,4-oxadiazole-5-carboxamide] | 8.07 µM |
| CN(Cc1cccc(-c2ccncc2)c1)C(=O)c1nc(-c2cc(Cl)c(O)c(Cl)c2)no1 [175a, 3-(3,5-dichloro-4-hydroxyphenyl)-N-methyl-N-(3-(pyridin-4-yl)benzyl)-1,2,4-oxadiazole-5-carboxamide] | 6.78 µM |
| CN(Cc1cccc(-c2ncccn2)c1)C(=O)c1nc(-c2cc(Cl)c(O)c(Cl)c2)no1 [176a, 3-(3,5-dichloro-4-hydroxyphenyl)-N-methyl-N-(3-(pyrimidin-2-yl)benzyl)-1,2,4-oxadiazole-5-carboxamide] | 24.6 µM |
| CN(Cc1cccc(-c2cncnc2)c1)C(=O)c1nc(-c2cc(Cl)c(O)c(Cl)c2)no1 [177a, 3-(3,5-dichloro-4-hydroxyphenyl)-N-methyl-N-(3-(pyrimidin-5-yl)benzyl)-1,2,4-oxadiazole-5-carboxamide] | 16.3 µM |
| O=C(NCc1ccc(Oc2cccc(Cl)c2)cc1)c1nc(-c2cc(Cl)c(O)c(Cl)c2)no1 [179a, N-(4-(3-chlorophenoxy)benzyl)-3-(3,5-dichloro-4-hydroxyphenyl)-1,2,4-oxadiazole-5-carboxamide] | 10.7 µM |
| O=C(NCc1ccc(Oc2ccc(OC(F)(F)F)cc2)cc1)c1nc(-c2cc(Cl)c(O)c(Cl)c2)no1 [181a, 3-(3,5-dichloro-4-hydroxyphenyl)-N-(4-(4-(trifluoromethoxy)phenoxy)benzyl)-1,2,4-oxadiazole-5-carboxamide] | 18.7 µM |
| CN(Cc1ccc(N2CCOCC2)cc1)C(=O)c1nc(-c2cc(Cl)c(O)c(Cl)c2)no1 [187a, 3-(3,5-dichloro-4-hydroxyphenyl)-N-methyl-N-(4-morpholinobenzyl)-1,2,4-oxadiazole-5-carboxamide] | 24.4 µM |
| CN(Cc1ccc(-c2cncnc2)cc1)C(=O)c1nc(-c2cc(Cl)c(O)c(Cl)c2)no1 [188a, 3-(3,5-dichloro-4-hydroxyphenyl)-N-methyl-N-(4-(pyrimidin-5-yl)benzyl)-1,2,4-oxadiazole-5-carboxamide] | 5.81 µM |
| CN(Cc1ccc(-c2ncccn2)cc1)C(=O)c1nc(-c2cc(Cl)c(O)c(Cl)c2)no1 [189a, 3-(3,5-dichloro-4-hydroxyphenyl)-N-methyl-N-(4-(pyrimidin-2-yl)benzyl)-1,2,4-oxadiazole-5-carboxamide] | 16.9 µM |
| O=C(NCc1ccc(Oc2cccc(OC(F)(F)F)c2)cc1)c1nc(-c2cc(Cl)c(O)c(Cl)c2)no1 [190a, 3-(3,5-dichloro-4-hydroxyphenyl)-N-(4-(3-(trifluoromethoxy)phenoxy)benzyl)-1,2,4-oxadiazole-5-carboxamide] | 11 µM |
| COc1cc(Oc2ccc(CNC(=O)c3nc(-c4cc(Cl)c(O)c(Cl)c4)no3)cc2)ccc1F [191a, 3-(3,5-dichloro-4-hydroxyphenyl)-N-(4-(4-fluoro-3-methoxyphenoxy)benzyl)-1,2,4-oxadiazole-5-carboxamide] | 8.85 µM |
| CC(C)(C)c1ccc(Oc2ccc(CNC(=O)c3nc(-c4cc(Cl)c(O)c(Cl)c4)no3)cc2)cc1 [192a, N-(4-(4-tert-butylphenoxy)benzyl)-3-(3,5-dichloro-4-hydroxyphenyl)-1,2,4-oxadiazole-5-carboxamide] | 17.6 µM |
| O=C(NCc1ccc(Oc2cccc(F)c2)cc1)c1nc(-c2cc(Cl)c(O)c(Cl)c2)no1 [194a, 3-(3,5-dichloro-4-hydroxyphenyl)-N-(4-(3-fluorophenoxy)benzyl)-1,2,4-oxadiazole-5-carboxamide] | 10 µM |
| CN(C)c1ccc(Oc2ccc(CNC(=O)c3nc(-c4cc(Cl)c(O)c(Cl)c4)no3)cc2)cc1 [197a, 3-(3,5-dichloro-4-hydroxyphenyl)-N-(4-(4-(dimethylamino)phenoxy)benzyl)-1,2,4-oxadiazole-5-carboxamide] | 7.76 µM |

Other lines, results leading:

| IC50 | SMILES |
| --- | --- |
| 11.5 µM | O=C(NCc1cccc(OC(F)F)c1)c1noc(-c2cc(Cl)c(O)c(Cl)c2)n1 [163a, 5-(3,5-dichloro-4-hydroxyphenyl)-N-(3-(difluoromethoxy)benzyl)-1,2,4-oxadiazole-3-carboxamide] |
| 12.9 µM | CC(C)(C)C(=O)CN(Cc1cccc(OC(F)(F)F)c1)C(=O)c1nc(-c2cc(Cl)c(O)c(Cl)c2)no1 [164a, 3-(3,5-dichloro-4-hydroxyphenyl)-N-(3,3-dimethyl-2-oxobutyl)-N-(3-(trifluoromethoxy)benzyl)-1,2,4-oxadiazole-5-carboxamide] |
| 6.21 µM | O=C(NCc1ccc(N2CCCCC2)cc1)c1nc(-c2cc(Cl)c(O)c(Cl)c2)no1 [166a, 3-(3,5-dichloro-4-hydroxyphenyl)-N-(4-(piperidin-1-yl)benzyl)-1,2,4-oxadiazole-5-carboxamide] |
| 9.61 µM | O=C(c1nc(-c2cc(Cl)c(O)c(Cl)c2)no1)N(Cc1ccccc1)Cc1cccnc1 [167a, N-benzyl-3-(3,5-dichloro-4-hydroxyphenyl)-N-(pyridin-3-ylmethyl)-1,2,4-oxadiazole-5-carboxamide] |
| 2.11 µM | O=C(c1nc(-c2cc(Cl)c(O)c(Cl)c2)no1)N(Cc1ccc(Oc2ccccc2)cc1)Cc1cccnc1 [168a, 3-(3,5-dichloro-4-hydroxyphenyl)-N-(4-phenoxybenzyl)-N-(pyridin-3-ylmethyl)-1,2,4-oxadiazole-5-carboxamide] |
| 3.62 µM | C=CCN(Cc1ccc(F)c(F)c1)C(=O)c1nc(-c2cc(Cl)c(O)c(Cl)c2)no1 [170a, N-allyl-3-(3,5-dichloro-4-hydroxyphenyl)-N-(3,4-difluorobenzyl)-1,2,4-oxadiazole-5-carboxamide] |
| 4.41 µM | Cc1cncc(Oc2cccc(CN(C)C(=O)c3nc(-c4cc(Cl)c(O)c(Cl)c4)no3)c2)n1 [172a, 3-(3,5-dichloro-4-hydroxyphenyl)-N-methyl-N-(3-(6-methylpyrazin-2-yloxy)benzyl)-1,2,4-oxadiazole-5-carboxamide] |
| 12.4 µM | CN(Cc1ccc(Oc2ccccn2)cc1)C(=O)c1nc(-c2cc(Cl)c(O)c(Cl)c2)no1 [173a, 3-(3,5-dichloro-4-hydroxyphenyl)-N-methyl-N-(4-(pyridin-2-yloxy)benzyl)-1,2,4-oxadiazole-5-carboxamide] |
| 7.94 µM | CN(Cc1cccc(Oc2ccccn2)c1)C(=O)c1nc(-c2cc(Cl)c(O)c(Cl)c2)no1 [178a, 3-(3,5-dichloro-4-hydroxyphenyl)-N-methyl-N-(3-(pyridin-2-yloxy)benzyl)-1,2,4-oxadiazole-5-carboxamide] |
| 10.3 µM | CC(C)Oc1ccc(Oc2ccc(CNC(=O)c3nc(-c4cc(Cl)c(O)c(Cl)c4)no3)cc2)cc1Cl [180a, N-(4-(3-chloro-4-isopropoxyphenoxy)benzyl)-3-(3,5-dichloro-4-hydroxyphenyl)-1,2,4-oxadiazole-5-carboxamide] |
| 8.03 µM | O=C(NCc1ccc(Oc2ccc(Br)cc2)cc1)c1nc(-c2cc(Cl)c(O)c(Cl)c2)no1 [182a, N-(4-(4-bromophenoxy)benzyl)-3-(3,5-dichloro-4-hydroxyphenyl)-1,2,4-oxadiazole-5-carboxamide] |
| 11.7 µM | COc1ccc(Oc2ccc(CNC(=O)c3nc(-c4cc(Cl)c(O)c(Cl)c4)no3)cc2)cc1F [183a, 3-(3,5-dichloro-4-hydroxyphenyl)-N-(4-(3-fluoro-4-methoxyphenoxy)benzyl)-1,2,4-oxadiazole-5-carboxamide] |
| 13.6 µM | CCOc1ccc(Oc2ccc(CNC(=O)c3nc(-c4cc(Cl)c(O)c(Cl)c4)no3)cc2)cc1Cl [184a, N-(4-(3-chloro-4-ethoxyphenoxy)benzyl)-3-(3,5-dichloro-4-hydroxyphenyl)-1,2,4-oxadiazole-5-carboxamide] |
| 5.11 µM | CN(Cc1cccc(-c2cccnc2)c1)C(=O)c1nc(-c2cc(Cl)c(O)c(Cl)c2)no1 [185a, 3-(3,5-dichloro-4-hydroxyphenyl)-N-methyl-N-(3-(pyridin-3-yl)benzyl)-1,2,4-oxadiazole-5-carboxamide] |
| 5.66 µM | CN(Cc1ccc(-c2ccccn2)cc1)C(=O)c1nc(-c2cc(Cl)c(O)c(Cl)c2)no1 [186a, 3-(3,5-dichloro-4-hydroxyphenyl)-N-methyl-N-(4-(pyridin-2-yl)benzyl)-1,2,4-oxadiazole-5-carboxamide] |
| 13.6 µM | Cc1ccc(Oc2ccc(CNC(=O)c3nc(-c4cc(Cl)c(O)c(Cl)c4)no3)cc2)cc1Cl [193a, N-(4-(3-chloro-4-methylphenoxy)benzyl)-3-(3,5-dichloro-4-hydroxyphenyl)-1,2,4-oxadiazole-5-carboxamide] |
| 8.92 µM | COc1ccc(Oc2ccc(CNC(=O)c3nc(-c4cc(Cl)c(O)c(Cl)c4)no3)cc2)cc1Cl [195a, N-(4-(3-chloro-4-methoxyphenoxy)benzyl)-3-(3,5-dichloro-4-hydroxyphenyl)-1,2,4-oxadiazole-5-carboxamide] |
| 16.2 µM | O=C(NCc1ccc(Oc2cc(Cl)cc(Cl)c2)cc1)c1nc(-c2cc(Cl)c(O)c(Cl)c2)no1 [196a, 3-(3,5-dichloro-4-hydroxyphenyl)-N-(4-(3,5-dichlorophenoxy)benzyl)-1,2,4-oxadiazole-5-carboxamide] |
